The values below come from patent US20250073248A1, “BIORESORBABLE CATIONIC STEROIDAL ANTIMICROBIAL COMPOUNDS WITH GLYCERIDE LINKAGES” (BRIGHAM YOUNG UNIVERSITY, priority 2023, published 2025).

In brackets after ≈: the same amount, converted by molar mass.

Experiment [1] has as its system Pseudomonas aeruginosa 01 (PA01). As to the kind of experiment: MIC and MBC, broth microdilution, PA01 (Table 1). Type of experiment: cell-based. Particulars: for MBC or MFC / MBC: value in parentheses; for MBC / MIC: Pseudomonas aeruginosa; for MIC: first value of cell. The text has this: (§1) To investigate the antimicrobial impact of structural variance in the novel bioresorbable CSA compounds disclosed herein,Pseudomonas aeruginosa 01 (PA01), methicillin-resistant Staphylococcus aureus (MRSA), and Candida albicans (CA) were selected, representing Gram-negative bacterial, Gram-positive bacterial, and fungal pathogens of high or critical priority on the world health organization's priority lists for bacteria and fungi. Earlier applications of CSA compounds have focused on preventing medical device infections, and all three strains are commonly found in colonized implants, making efficacy against these pathogens an important indicator of future applicability.
(§2) All compounds were screened against these pathogens to determine their minimum inhibitory concentration (MIC), minimum bactericidal concentration (MBC), and minimum fungicidal concentration (MFC) using a broth microdilution method. […] Of these three, only CSA-4110 was similarly active against PA01and CA, inhibiting growth at 8 μg/mL.

In experiment [2] the test system is methicillin-resistant Staphylococcus aureus (MRSA). As to the kind of experiment: MIC and MBC, broth microdilution, MRSA (Table 1). It counts as cell-based. Particulars: for MBC / MIC: Staphylococcus aureus; for MIC: first value of cell.
Excerpt: as §1, §2
(Dilution methods test growth across graded concentrations, often in twofold steps.)

The next experiment has as its system Candida albicans (CA). As to the kind of experiment: MIC and MFC, broth microdilution, CA (Table 1). It counts as cell-based. Particulars: for MBC / MIC: Candida albicans; for MBC / MBC or MFC: MFC, value in parentheses; for MIC: first value of cell.
Excerpt: as §1, §2

The test system of another experiment is PA01, MRSA and CA. Put plainly: MIC, MBC and MFC screen, all three pathogens (summary statements). The settings on record: compared with CSA-4110. It counts as cell-based.
Excerpt: as §1, §2

A further experiment relates to MRSA ATCC BAA-42. Put plainly: Membrane depolarization, DiSC2(5) fluorescence. It counts as cell-based, Staphylococcus aureus. The settings on record: 8 μg/mL, FIG. 5. The protocol:
Reference is made to FIGS. 4 and 5. […] CSA-131 or CSA-4110 was added at 140 second to achieve 8 μg/mL after addition.
Antimicrobial peptides (AMPs) and CSA compounds are known to permeabilize bacterial membranes. For bacterial survival, the cytoplasmic membrane must be polarized. Depolarization of this membrane prevents ATP synthesis and leads to cell death. The dye 3,3′-diethylthiadicarbocyanine iodide (DiSC2(5)) can be used to measure cell membrane polarization. Fluorescence of this dye is decreased when it inserts into polarized membranes, and membrane depolarization results in substantial increases in fluorescence (see FIG. 5).
MRSA was used to explore the impact of CSA-4110 on membrane depolarization and compared results to those with ceragenin CSA-131. […] Fluorescence was monitored over time after addition of CSA-4110 or CSA-131. which incorporated into cellular membranes.

The subject of experiment [3] is strains of Staphylococcus aureus, Pseudomonas aeruginosa, and Candida albicans. Particulars: previous work; strains of S. aureus, P. aeruginosa, C. albicans; cited from earlier work.
Another experiment relates to Candida albicans 90028. Put plainly: Example 1 MIC/MFC (FIG. 1, FIG. 2), C. albicans. Type of experiment: cell-based. The protocol: (§3) The antimicrobial activities of CSA-4108, CSA-4110, CSA-4112, and CSA-4114 were determined relative to methicillin-resistant Staphylococcus aureus (MRSA), Pseudomonas aeruginosa (Pa), and Candida albicans 90028. The minimum inhibitory concentration (MIC) for CSA-4108, CSA-4110, CSA-4112, and CSA-4114 relative to the foregoing microbes is graphically reported in FIG. 1. The minimum bactericidal concentration (MBC) and minimum fungicidal concentration […] for CSA-4108, CSA-4110, CSA-4112, and CSA-4114 relative to the foregoing microbes are graphically reported in FIG. 2.

Experiment [4] concerns methicillin-resistant Staphylococcus aureus (MRSA). Put plainly: Example 1 MIC/MBC (FIG. 1, FIG. 2), MRSA. Type of experiment: cell-based. The protocol: as §3
[5] abbreviates: MBC, value in parentheses, kills at least 99.9%.

With `CCCC(=O)OCC(COC(=O)CC[C@@H](C)[C@H]1CC[C@H]2[C@@H]3[C@H](OC(=O)CCN)C[C@@H]4C[C@H](OC(=O)CCN)CC[C@]4(C)[C@H]3C[C@H](OC(=O)CCN)[C@]12C)OC(=O)CCC` (stereo partly shown) [CSA-4204], in experiment [1], the “MBC or MFC” value was over 100 µg/mL. The MBC came out at 100 µg/mL (≈ 120 µM) in experiment [1], 8 µg/mL (≈ 9.57 µM) in experiment [2] (setting [5]) and 32 µg/mL (≈ 38.3 µM) in the experiment with Candida albicans (CA). In addition, the MIC in experiment [1] was 64 µg/mL (≈ 76.5 µM); in experiment [2] it was at most 8 µg/mL; with Candida albicans (CA), 16 µg/mL (≈ 19.1 µM).
Turning to `CCCCCCCCCC(=O)OCC(COC(=O)CC[C@@H](C)[C@H]1CC[C@H]2[C@@H]3[C@H](OC(=O)CCN)C[C@@H]4C[C@H](OC(=O)CCN)CC[C@]4(C)[C@H]3C[C@H](OC(=O)CCN)[C@]12C)OC(=O)CCCCCCCCC` (stereo partly shown) [CSA-4210], the MBC (in experiment [1]; in experiment [2] (setting [5]); in the experiment with Candida albicans (CA)) was over 100 µg/mL each time. The MIC (in experiment [1]; in experiment [2]; against Candida albicans (CA)) was over 100 µg/mL each time.
Turning to `CCCCCCCC(=O)OCC(COC(=O)CC[C@@H](C)[C@H]1CC[C@H]2[C@@H]3[C@H](OC(=O)CCN)C[C@@H]4C[C@H](OC(=O)CCN)CC[C@]4(C)[C@H]3C[C@H](OC(=O)CCN)[C@]12C)OC(=O)CCCCCCC` (stereo partly shown) [CSA-4208], the MBC in experiment [1] is over 100 µg/mL; in experiment [2] (setting [5]), 64 µg/mL (≈ 67.5 µM); in the experiment on Candida albicans (CA) it was 64 µg/mL (≈ 67.5 µM). Also, the MIC in experiment [1] was found to be 64 µg/mL (≈ 67.5 µM); in experiment [2], 32 µg/mL (≈ 33.7 µM); against Candida albicans (CA), 64 µg/mL (≈ 67.5 µM).
For the molecule `CCCCCCCCCC(=O)OC[C@H](O)COC(=O)CC[C@@H](C)[C@H]1CC[C@H]2[C@@H]3[C@H](OC(=O)CCN)C[C@@H]4C[C@H](OC(=O)CCN)CC[C@]4(C)[C@H]3C[C@H](OC(=O)CCN)[C@]12C` [CSA-4110S], the values for the MBC (in experiment [1]; in experiment [2] (setting [5]); with Candida albicans (CA)) were 16 µg/mL (≈ 18.8 µM), 4 µg/mL (≈ 4.71 µM) and 8 µg/mL (≈ 9.41 µM), respectively. The minimal inhibitory concentration (MIC) was determined as 8 µg/mL (≈ 9.41 µM) in experiment [1], 4 µg/mL (≈ 4.71 µM) in experiment [2] and 8 µg/mL (≈ 9.41 µM) against Candida albicans (CA). Moreover, in the experiment on PA01, MRSA and CA, the “antimicrobial activity in MIC and MBC/MFC assays, in words” value is reported as “performed comparably to CSA-4110”.
`CCCCCCCCCCCCNCCC[C@@H](C)[C@H]1CC[C@H]2[C@@H]3[C@H](OCCCN)C[C@@H]4C[C@H](OCCCN)CC[C@]4(C)[C@H]3C[C@H](OCCCN)[C@]12C.Cl.Cl.Cl.Cl` [CSA-131]: in the experiment with MRSA ATCC BAA-42, the “speed of depolarization of MRSA cells, comparison” value is on record as “more rapidly than CSA-4110”. In the experiment with MRSA ATCC BAA-42 (added at 140 seconds), the “fluorescence of DiSC2(5) after addition (membrane depolarization)” value is listed as “rapid increase of fluorescence”. In experiment [3], the MICs was 0.5 to 2 µg/mL.
Consider `CCCCCCCCCCCC(=O)OCC(O)COC(=O)CC[C@@H](C)[C@H]1CC[C@H]2[C@@H]3[C@H](OC(=O)CCN)C[C@@H]4C[C@H](OC(=O)CCN)CC[C@]4(C)[C@H]3C[C@H](OC(=O)CCN)[C@]12C` (stereo partly shown) [CSA-4112], for which the “MIC (FIG. 1), ranking in words” value in the experiment with Candida albicans 90028 was “same MIC”. Further, the MBC was 64 µg/mL (≈ 72.9 µM) in experiment [1], 32 µg/mL (≈ 36.4 µM) in experiment [2] (setting [5]) and 16 µg/mL (≈ 18.2 µM) with Candida albicans (CA). Besides, the results for the MIC (in experiment [1]; in experiment [2]; against Candida albicans (CA)) were 64 µg/mL (≈ 72.9 µM), 16 µg/mL (≈ 18.2 µM) and 16 µg/mL (≈ 18.2 µM), respectively. For the same molecule, the “MBC or MFC” value in the experiment on Candida albicans (CA) is reported as 16 (16) μg/mL.
As to `CCCCCCCCCC(=O)OC[C@@H](O)COC(=O)CC[C@@H](C)[C@H]1CC[C@H]2[C@@H]3[C@H](OC(=O)CCN)C[C@@H]4C[C@H](OC(=O)CCN)CC[C@]4(C)[C@H]3C[C@H](OC(=O)CCN)[C@]12C` [CSA-4110R], the MBC in experiment [1] came to 8 µg/mL (≈ 9.41 µM); in experiment [2] (setting [5]), 4 µg/mL (≈ 4.71 µM); in the experiment with Candida albicans (CA), 8 µg/mL (≈ 9.41 µM). For the same molecule, the MIC was found to be 4 µg/mL (≈ 4.71 µM) in experiment [1], 4 µg/mL (≈ 4.71 µM) in experiment [2] and 8 µg/mL (≈ 9.41 µM) against Candida albicans (CA). The “antimicrobial activity in MIC and MBC/MFC assays, in words” value with PA01, MRSA and CA was “performed comparably to CSA-4110”.
As to `CCCCCCCCCCCCCC(=O)OCC(O)COC(=O)CC[C@@H](C)[C@H]1CC[C@H]2[C@@H]3[C@H](OC(=O)CCN)C[C@@H]4C[C@H](OC(=O)CCN)CC[C@]4(C)[C@H]3C[C@H](OC(=O)CCN)[C@]12C` (stereo partly shown) [CSA-4114], in the experiment with Candida albicans 90028, the “MFC (FIG. 2), ranking in words” value is given as “highest MFC”. Besides, the “MIC (FIG. 1), ranking in words” value (against Candida albicans 90028; in experiment [4]) was “highest MIC” in each case. Also, the figures for the MBC (in experiment [1]; in experiment [2] (setting [5]); in the experiment with Candida albicans (CA)) were over 100 µg/mL, over 100 µg/mL and 64 µg/mL (≈ 70.6 µM), respectively. The MIC in experiment [1] is over 100 µg/mL; in experiment [2], 64 µg/mL (≈ 70.6 µM); with Candida albicans (CA), 64 µg/mL (≈ 70.6 µM).
For `CCCCCCCC(=O)OCC(O)COC(=O)CC[C@@H](C)[C@H]1CC[C@H]2[C@@H]3[C@H](OC(=O)CCN)C[C@@H]4C[C@H](OC(=O)CCN)CC[C@]4(C)[C@H]3C[C@H](OC(=O)CCN)[C@]12C` (stereo partly shown) [CSA-4108], in the experiment with Candida albicans 90028, the “MIC (FIG. 1), ranking in words” value is on record as “same MIC”. Moreover, the MBC in experiment [1] is over 100 µg/mL; in experiment [2] (setting [5]), 32 µg/mL (≈ 38.9 µM); with Candida albicans (CA), 16 µg/mL (≈ 19.5 µM). In addition, the MIC in experiment [1] is 64 µg/mL (≈ 77.8 µM); in experiment [2] it was 16 µg/mL (≈ 19.5 µM); against Candida albicans (CA), 16 µg/mL (≈ 19.5 µM). Moreover, in the experiment on Candida albicans (CA), the “MBC or MFC” value was 16 (16) μg/mL.
With `CCCCCC(=O)OCC(COC(=O)CC[C@@H](C)[C@H]1CC[C@H]2[C@@H]3[C@H](OC(=O)CCN)C[C@@H]4C[C@H](OC(=O)CCN)CC[C@]4(C)[C@H]3C[C@H](OC(=O)CCN)[C@]12C)OC(=O)CCCCC` (stereo partly shown) [CSA-4206], the results for the “MBC or MFC” value (in experiment [1]; in experiment [2] (setting [5]); in the experiment on Candida albicans (CA)) were 32 (32) μg/mL, 8 (8) μg/mL and 8 (8) μg/mL, respectively. The MBC in experiment [1] worked out at 32 µg/mL (≈ 35.9 µM); in experiment [2] (setting [5]), 8 µg/mL (≈ 8.97 µM); in the experiment with Candida albicans (CA), 8 µg/mL (≈ 8.97 µM). Also, the MIC in experiment [1] was 32 µg/mL (≈ 35.9 µM); in experiment [2], at most 8 µg/mL; in the experiment on Candida albicans (CA), 8 µg/mL (≈ 8.97 µM).

As usually defined, the MIC is the lowest concentration found to suppress growth. Low values mean inhibition by little substance, high ones a need for much substance.
